Numbers after ± are expanded uncertainties.
Columns and labels:
[1] = 101.33 kPa, Liquid, Vibrating tube method
[2] = molar heat capacity at constant pressure; details: 101.33 kPa, Liquid, Small sample (50 mg) DSC

Clc1ccccc1Cl [1,2-dichlorobenzene]
Details	mass density [kg/m3]	molar heat capacity at constant pressure [J/K/mol]
[1], 288.15 K	1311.76 ± 0.64	–
[1], 298.15 K	1300.61 ± 0.63	–
[1], 308.15 K	1289.45 ± 0.62	–
[1], 318.15 K	1278.29 ± 0.6	–
[1], 328.15 K	1267.09 ± 0.59	–
[1], 338.15 K	1255.87 ± 0.58	–
[2], 283.15 K	–	167.68 ± 2.6
[2], 285.15 K	–	168.06 ± 2.6
[2], 287.15 K	–	168.44 ± 2.6
[2], 289.15 K	–	168.83 ± 2.6
[2], 291.15 K	–	169.23 ± 2.6
[2], 293.15 K	–	169.64 ± 2.6
[2], 295.15 K	–	170.05 ± 2.6
[2], 297.15 K	–	170.47 ± 2.6
[2], 299.15 K	–	170.89 ± 2.6
[2], 301.15 K	–	171.32 ± 2.6
[2], 303.15 K	–	171.76 ± 2.7
[2], 305.15 K	–	172.2 ± 2.7
[2], 307.15 K	–	172.64 ± 2.7
[2], 309.15 K	–	173.09 ± 2.7
[2], 311.15 K	–	173.54 ± 2.7
[2], 313.15 K	–	174 ± 2.7
[2], 315.15 K	–	174.46 ± 2.7
[2], 317.15 K	–	174.92 ± 2.7
[2], 319.15 K	–	175.38 ± 2.7
[2], 321.15 K	–	175.85 ± 2.7
[2], 323.15 K	–	176.32 ± 2.7
[2], 325.15 K	–	176.79 ± 2.7
[2], 327.15 K	–	177.26 ± 2.8
[2], 329.15 K	–	177.73 ± 2.8
[2], 331.15 K	–	178.2 ± 2.8
[2], 333.15 K	–	178.67 ± 2.8
[2], 335.15 K	–	179.14 ± 2.8
[2], 337.15 K	–	179.61 ± 2.8
[2], 339.15 K	–	180.07 ± 2.8
[2], 341.15 K	–	180.54 ± 2.8
[2], 343.15 K	–	181 ± 2.8
[2], 345.15 K	–	181.47 ± 2.8
[2], 347.15 K	–	181.92 ± 2.8
[2], 349.15 K	–	182.38 ± 2.8
[2], 351.15 K	–	182.83 ± 2.8
[2], 353.15 K	–	183.28 ± 2.8

Clc1ccc(Cl)c(Cl)c1Cl [1,2,3,4-tetrachlorobenzene]
[2]
Details	molar heat capacity at constant pressure [J/K/mol]
327.15 K	225.17 ± 3.5
329.15 K	225.49 ± 3.5
331.15 K	225.82 ± 3.5
333.15 K	226.14 ± 3.5
335.15 K	226.47 ± 3.5
337.15 K	226.8 ± 3.5
339.15 K	227.13 ± 3.5
341.15 K	227.46 ± 3.5
343.15 K	227.8 ± 3.5
345.15 K	228.13 ± 3.5
347.15 K	228.47 ± 3.5
349.15 K	228.81 ± 3.5
351.15 K	229.16 ± 3.5
353.15 K	229.5 ± 3.6

Clc1cccc(Cl)c1Cl [1,2,3-trichlorobenzene]
[2]
Details	molar heat capacity at constant pressure [J/K/mol]
327.15 K	201.44 ± 3.1
329.15 K	201.8 ± 3.1
331.15 K	202.16 ± 3.1
333.15 K	202.52 ± 3.1
335.15 K	202.88 ± 3.1
337.15 K	203.25 ± 3.1
339.15 K	203.62 ± 3.1
341.15 K	204 ± 3.2
343.15 K	204.38 ± 3.2
345.15 K	204.75 ± 3.2
347.15 K	205.14 ± 3.2
349.15 K	205.52 ± 3.2
351.15 K	205.91 ± 3.2
353.15 K	206.3 ± 3.2

Brc1ccccc1Br [1,2-dibromobenzene]
Details	mass density [kg/m3]	molar heat capacity at constant pressure [J/K/mol]
[1], 288.15 K	1987.92 ± 1.6	–
[1], 298.15 K	1972.75 ± 1.5	–
[1], 308.15 K	1957.62 ± 1.5	–
[1], 318.15 K	1942.51 ± 1.5	–
[1], 328.15 K	1927.42 ± 1.5	–
[1], 338.15 K	1912.34 ± 1.4	–
[2], 283.15 K	–	177.44 ± 2.8
[2], 285.15 K	–	177.83 ± 2.8
[2], 287.15 K	–	178.12 ± 2.8
[2], 289.15 K	–	178.43 ± 2.8
[2], 291.15 K	–	178.75 ± 2.8
[2], 293.15 K	–	179.08 ± 2.8
[2], 295.15 K	–	179.42 ± 2.8
[2], 297.15 K	–	179.76 ± 2.8
[2], 299.15 K	–	180.12 ± 2.8
[2], 301.15 K	–	180.48 ± 2.8
[2], 303.15 K	–	180.85 ± 2.8
[2], 305.15 K	–	181.22 ± 2.8
[2], 307.15 K	–	181.6 ± 2.8
[2], 309.15 K	–	181.99 ± 2.8
[2], 311.15 K	–	182.38 ± 2.8
[2], 313.15 K	–	182.77 ± 2.8
[2], 315.15 K	–	183.17 ± 2.8
[2], 317.15 K	–	183.57 ± 2.8
[2], 319.15 K	–	183.97 ± 2.9
[2], 321.15 K	–	184.38 ± 2.9
[2], 323.15 K	–	184.79 ± 2.9
[2], 325.15 K	–	185.19 ± 2.9
[2], 327.15 K	–	185.6 ± 2.9
[2], 329.15 K	–	186.01 ± 2.9
[2], 331.15 K	–	186.42 ± 2.9
[2], 333.15 K	–	186.82 ± 2.9
[2], 335.15 K	–	187.23 ± 2.9
[2], 337.15 K	–	187.63 ± 2.9
[2], 339.15 K	–	188.03 ± 2.9
[2], 341.15 K	–	188.42 ± 2.9
[2], 343.15 K	–	188.82 ± 2.9
[2], 345.15 K	–	189.2 ± 2.9
[2], 347.15 K	–	189.58 ± 2.9
[2], 349.15 K	–	189.96 ± 2.9
[2], 351.15 K	–	190.33 ± 3
[2], 353.15 K	–	190.69 ± 3
